According to patent US10039753B2, “Imidazo[4,5-c]quinoline and imidazo[4,5-c][1,5]naphthyridine derivatives as LRRK2 inhibitors” (Pfizer Inc., priority 2015, dated 2018):
Structures can show the parent of a compound that is named as a salt.

Experiments:
[1] = target: T1, GST-tagged truncated LRRK2 (Homo sapiens, UniProt Q5S007); experiment: LRRK2 Assay, Format 1 (Lantha Screen), WT; type: biochemical; settings: Format 1, wild-type LRRK2; geometric mean of 2-4 determinations unless footnoted (a: ≥5 determinations; b: single determination; c: determined on trifluoroacetate salt)
T1 construct: GST-tagged truncated LRRK2 from Invitrogen (Cat # PV4874); GST; purchased Invitrogen PV4874
Procedure, shortened: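 Kinase activity measured by TR-FRET: GST-tagged truncated LRRK2 (4 μg/mL working solution) reacted with fluorescein-labeled LRRKtide (ERM-based peptide) across a compound dose response for 2 h at room temperature. Reaction stopped with EDTA-containing detection buffer (20 mM Tris pH 7.6) holding 2 nM terbium anti-phospho-ERM antibody.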

[2] = target: mutant G2019S LRRK2 (Homo sapiens, UniProt Q5S007, G2019S); experiment: LRRK2 Assay, Format 1 (Lantha Screen), G2019S mutant
Chain of mutant G2019S LRRK2 (Q5S007 970-2527 G2019S limits assumed): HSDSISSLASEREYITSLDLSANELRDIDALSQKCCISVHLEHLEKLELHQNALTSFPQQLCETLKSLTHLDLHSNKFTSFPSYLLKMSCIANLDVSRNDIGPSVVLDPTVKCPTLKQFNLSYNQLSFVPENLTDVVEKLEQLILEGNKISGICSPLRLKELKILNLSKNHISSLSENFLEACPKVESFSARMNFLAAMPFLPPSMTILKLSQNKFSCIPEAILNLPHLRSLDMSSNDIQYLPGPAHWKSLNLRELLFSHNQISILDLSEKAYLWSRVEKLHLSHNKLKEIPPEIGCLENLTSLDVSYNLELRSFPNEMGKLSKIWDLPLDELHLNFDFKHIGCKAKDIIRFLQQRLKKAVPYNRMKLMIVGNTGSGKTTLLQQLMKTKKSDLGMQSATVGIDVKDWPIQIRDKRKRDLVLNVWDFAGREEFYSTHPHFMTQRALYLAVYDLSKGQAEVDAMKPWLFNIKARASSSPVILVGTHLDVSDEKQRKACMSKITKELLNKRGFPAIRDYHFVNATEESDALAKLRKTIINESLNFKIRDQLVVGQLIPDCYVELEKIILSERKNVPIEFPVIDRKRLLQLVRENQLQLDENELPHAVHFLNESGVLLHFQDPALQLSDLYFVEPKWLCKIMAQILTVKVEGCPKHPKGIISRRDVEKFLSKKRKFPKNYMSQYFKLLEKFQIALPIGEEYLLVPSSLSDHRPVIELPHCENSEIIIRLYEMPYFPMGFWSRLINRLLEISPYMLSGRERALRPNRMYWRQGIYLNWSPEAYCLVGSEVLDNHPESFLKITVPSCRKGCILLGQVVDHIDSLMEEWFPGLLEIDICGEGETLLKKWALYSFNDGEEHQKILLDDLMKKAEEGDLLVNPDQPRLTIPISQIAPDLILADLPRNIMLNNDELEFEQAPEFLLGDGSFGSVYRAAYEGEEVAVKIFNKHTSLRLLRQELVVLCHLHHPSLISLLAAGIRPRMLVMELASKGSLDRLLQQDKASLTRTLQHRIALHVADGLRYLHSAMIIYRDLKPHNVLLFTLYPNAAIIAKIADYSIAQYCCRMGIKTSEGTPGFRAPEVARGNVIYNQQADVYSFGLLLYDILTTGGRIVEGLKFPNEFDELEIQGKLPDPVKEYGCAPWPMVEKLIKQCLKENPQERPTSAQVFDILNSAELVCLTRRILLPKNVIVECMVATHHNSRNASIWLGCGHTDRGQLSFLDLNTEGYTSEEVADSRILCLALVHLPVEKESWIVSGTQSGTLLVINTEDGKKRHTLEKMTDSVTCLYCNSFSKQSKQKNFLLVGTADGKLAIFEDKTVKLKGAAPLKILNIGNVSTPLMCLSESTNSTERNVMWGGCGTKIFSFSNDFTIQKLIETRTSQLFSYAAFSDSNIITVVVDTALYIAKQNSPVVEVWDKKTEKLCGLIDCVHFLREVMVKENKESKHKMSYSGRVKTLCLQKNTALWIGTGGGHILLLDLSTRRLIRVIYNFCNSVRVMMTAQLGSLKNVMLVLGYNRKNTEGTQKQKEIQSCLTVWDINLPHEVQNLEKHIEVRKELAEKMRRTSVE

T1 sequence (Q5S007 970-2527 limits assumed): as the sequence (Q5S007 970-2527 G2019S limits assumed) above, with S1050G counted along it

IC50 [1]	IC50 [2]	Structure (SMILES)
4.1 nM	2.7 nM	C[C@@H]1C[C@H](n2c(Cc3ccon3)nc3cnc4ccc(Cl)cc4c32)CCO1 [Example 52, 8-chloro-1-[(2R,4R)-2-methyltetrahydro-2H-pyran-4-yl]-2-(1,2-oxazol-3-ylmethyl)-1H-imidazo[4,5-c]quinoline]
3.1 nM	1.9 nM	C[C@@H]1C[C@H](n2c(Cc3cscn3)nc3cnc4ccc(Cl)cc4c32)CCO1 [Example 53, 8-chloro-1-[(2R,4R)-2-methyltetrahydro-2H-pyran-4-yl]-2-(1,3-thiazol-4-ylmethyl)-1H-imidazo[4,5-c]quinoline]
8.8 nM	8 nM	C[C@@H]1C[C@H](n2c(Cc3ccon3)nc3cnc4ccc(F)cc4c32)CCO1 [Example 54, 8-fluoro-1-[(2R,4R)-2-methyltetrahydro-2H-pyran-4-yl]-2-(1,2-oxazol-3-ylmethyl)-1H-imidazo[4,5-c]quinoline]
6.1 nM	4 nM	C[C@@H]1C[C@H](n2c(Cc3cscn3)nc3cnc4ccc(C#N)cc4c32)CCO1 [Example 57, 1-[(2R,4R)-2-methyltetrahydro-2H-pyran-4-yl]-2-(1,3-thiazol-4-ylmethyl)-1H-imidazo[4,5-c]quinoline-8-carbonitrile]
176 nM	52 nM	C[C@@H]1C[C@H](n2c(Cc3ccon3)nc3cnc4ccc(Br)cc4c32)C[C@H](C)O1 [Example 59, 8-bromo-1-[(2R,4r,6S)-2,6-dimethyltetrahydro-2H-pyran-4-yl]-2-(1,2-oxazol-3-ylmethyl)-1H-imidazo[4,5-c]quinoline]
35.1 nM	11.5 nM	C[C@@H]1C[C@H](n2c(Cc3cscn3)nc3cnc4ccc(Br)cc4c32)C[C@H](C)O1 [Example 60]
181 nM	67.9 nM	C[C@@H]1C[C@H](n2c(Cc3cscn3)nc3cnc4ccc(C#N)cc4c32)C[C@H](C)O1 [Example 61, 1-[(2R,4r,6S)-2,6-dimethyltetrahydro-2H-pyran-4-yl]-2-(1,3-thiazol-4-ylmethyl)-1H-imidazo[4,5-c]quinoline-8-carbonitrile]
41.9 nM	12.8 nM	COc1ccc2ncc3nc(Cc4ccon4)n([C@@H]4CCO[C@H](C)C4)c3c2c1 [Example 62, 8-methoxy-1-[(2R,4R)-2-methyltetrahydro-2H-pyran-4-yl]-2-(1,2-oxazol-3-ylmethyl)-1H-imidazo[4,5-c]quinoline]
16.1 nM	12.1 nM	Clc1ccc2ncc3nc(Cc4ccon4)n(C4CCOCC4)c3c2c1 [Example 63, 8-chloro-2-(1,2-oxazol-3-ylmethyl)-1-(tetrahydro-2H-pyran-4-yl)-1H-imidazo[4,5-c]quinoline, formate salt]
5.8 nM	4 nM	CC[C@@H]1C[C@H](n2c(Cc3ccon3)nc3cnc4ccc(C#N)cc4c32)CCO1 [Example 67, 1-[(2R,4R)-2-ethyltetrahydro-2H-pyran-4-yl]-2-(1,2-oxazol-3-ylmethyl)-1H-imidazo[4,5-c]quinoline-8-carbonitrile]
23.6 nM	19.2 nM	C[C@@H]1C[C@H](n2c(Cc3ccon3)nc3cnc4cccnc4c32)CCO1 [Example 68, 1-[(2R,4R)-2-methyltetrahydro-2H-pyran-4-yl]-2-(1,2-oxazol-3-ylmethyl)-1H-imidazo[4,5-c][1,5]naphthyridine]
78.2 nM	82.4 nM	c1ccc2c(c1)ncc1nc(Cc3cn4ncsc4n3)n(C3CCOCC3)c12 [Example 69, 2-(imidazo[2,1-b][1,3,4]thiadiazol-6-ylmethyl)-1-(tetrahydro-2H-pyran-4-yl)-1H-imidazo[4,5-c]quinoline]
77.7 nM	66.5 nM	COc1ccc(Cc2nc3cnc4ccc(F)cc4c3n2C2CCOC(C)(C)C2)nc1 (stereo not drawn) [Example 70, 1-(2,2-dimethyltetrahydro-2H-pyran-4-yl)-8-fluoro-2-[(5-methoxypyridin-2-yl)methyl]-1H-imidazo[4,5-c]quinoline]
106 nM	120 nM	Clc1cn2cc(Cc3nc4cnc5ccccc5c4n3C3CCOCC3)nc2s1 [Example 71, 2-[(2-chloroimidazo[2,1-b][1,3]thiazol-6-yl)methyl]-1-(tetrahydro-2H-pyran-4-yl)-1H-imidazo[4,5-c]quinoline, trifluoroacetate salt]
156 nM	170 nM	CC1(C)CC(n2c(Cc3cscn3)nc3cnc4ccccc4c32)CCO1 (stereo not drawn) [Example 72, 1-(2,2-dimethyltetrahydro-2H-pyran-4-yl)-2-(1,3-thiazol-4-ylmethyl)-1H-imidazo[4,5-c]quinoline, trifluoroacetate salt]
76.3 nM	98.4 nM	CC1(C)CC(n2c(Cc3cn4ncsc4n3)nc3cnc4ccccc4c32)CCO1 (stereo not drawn) [Example 73, 1-(2,2-dimethyltetrahydro-2H-pyran-4-yl)-2-(imidazo[2,1-b][1,3,4]thiadiazol-6-ylmethyl)-1H-imidazo[4,5-c]quinoline, trifluoroacetate salt]
112 nM	102 nM	Fc1ccc2ncc3nc(Cn4cc(C(F)(F)F)nn4)n(C4CCOCC4)c3c2c1 [Example 74, 8-fluoro-1-(tetrahydro-2H-pyran-4-yl)-2-{[4-(trifluoromethyl)-1H-1,2,3-triazol-1-yl]methyl}-1H-imidazo[4,5-c]quinoline, trifluoroacetate salt]
130 nM	155 nM	Fc1ccc2ncc3nc(Cc4ccon4)n(C4CCOCC4)c3c2c1 [Example 75, 8-fluoro-2-(1,2-oxazol-3-ylmethyl)-1-(tetrahydro-2H-pyran-4-yl)-1H-imidazo[4,5-c]quinoline, trifluoroacetate salt]
67.5 nM	54.5 nM	Fc1ccc2ncc3nc(Cn4cc5ccccc5n4)n(C4CCOCC4)c3c2c1 [Example 76, 8-fluoro-2-(2H-indazol-2-ylmethyl)-1-(tetrahydro-2H-pyran-4-yl)-1H-imidazo[4,5-c]quinoline, trifluoroacetate salt]
74.6 nM	62.5 nM	Fc1ccc2ncc3nc(Cc4cscn4)n(C4CCOCC4)c3c2c1 [Example 77, 8-fluoro-1-(tetrahydro-2H-pyran-4-yl)-2-(1,3-thiazol-4-ylmethyl)-1H-imidazo[4,5-c]quinoline, trifluoroacetate salt]
145 nM	115 nM	Fc1ccc2ncc3nc(Cn4cc(C(F)(F)F)cn4)n(C4CCOCC4)c3c2c1 [Example 78, 8-fluoro-1-(tetrahydro-2H-pyran-4-yl)-2-{[4-(trifluoromethyl)-1H-pyrazol-1-yl]methyl}-1H-imidazo[4,5-c]quinoline, trifluoroacetate salt]
53.8 nM	47.3 nM	CC1(C)CC(n2c(Cn3cc(C4CC4)nn3)nc3cnc4ccc(F)cc4c32)CCO1 (stereo not drawn) [Example 79, 2-[(4-cyclopropyl-1H-1,2,3-triazol-1-yl)methyl]-1-(2,2-dimethyltetrahydro-2H-pyran-4-yl)-8-fluoro-1H-imidazo[4,5-c]quinoline, trifluoroacetate salt]
52.1 nM	39.5 nM	CC1(C)CC(n2c(Cc3cscn3)nc3cnc4ccc(F)cc4c32)CCO1 (stereo not drawn) [Example 80, 1-(2,2-dimethyltetrahydro-2H-pyran-4-yl)-8-fluoro-2-(1,3-thiazol-4-ylmethyl)-1H-imidazo[4,5-c]quinoline, trifluoroacetate salt]
159 nM	121 nM	CC1(C)CC(n2c(Cn3cc(C(F)(F)F)cn3)nc3cnc4ccc(F)cc4c32)CCO1 (stereo not drawn) [Example 81, 1-(2,2-dimethyltetrahydro-2H-pyran-4-yl)-8-fluoro-2-{[4-(trifluoromethyl)-1H-pyrazol-1-yl]methyl}-1H-imidazo[4,5-c]quinoline, trifluoroacetate salt]
17.6 nM	16.2 nM	Fc1ccc2ncc3nc(Cc4cn5ncsc5n4)n(C4CCOCC4)c3c2c1 [Example 82, 8-fluoro-2-(imidazo[2,1-b][1,3,4]thiadiazol-6-ylmethyl)-1-(tetrahydro-2H-pyran-4-yl)-1H-imidazo[4,5-c]quinoline, trifluoroacetate salt]
25.4 nM	21.2 nM	Cc1nn2cc(Cc3nc4cnc5ccc(F)cc5c4n3C3CCOC(C)(C)C3)nc2s1 (stereo not drawn) [Example 83, 1-(2,2-dimethyltetrahydro-2H-pyran-4-yl)-8-fluoro-2-[(2-methylimidazo[2,1-b][1,3,4]thiadiazol-6-yl)methyl]-1H-imidazo[4,5-c]quinoline, trifluoroacetate salt]
31.4 nM	24.9 nM	CC1(C)CC(n2c(Cc3ccon3)nc3cnc4ccc(F)cc4c32)CCO1 (stereo not drawn) [Example 84, 1-(2,2-dimethyltetrahydro-2H-pyran-4-yl)-8-fluoro-2-(1,2-oxazol-3-ylmethyl)-1H-imidazo[4,5-c]quinoline, trifluoroacetate salt]
12.3 nM	10 nM	C[C@@H]1C[C@H](n2c(Cc3cscn3)nc3c(N)nc4ccc(Cl)cc4c32)CCO1 [Example 85, 8-chloro-1-[(2R,4R)-2-methyltetrahydro-2H-pyran-4-yl]-2-(1,3-thiazol-4-ylmethyl)-1H-imidazo[4,5-c]quinolin-4-amine, trifluoroacetate salt]
111 nM	38.8 nM	COc1ccc2ncc3nc(Cc4noc(C)n4)n([C@@H]4CCO[C@H](C)C4)c3c2c1 [Example 87, 8-methoxy-2-[(5-methyl-1,2,4-oxadiazol-3-yl)methyl]-1-[(2R,4R)-2-methyltetrahydro-2H-pyran-4-yl]-1H-imidazo[4,5-c]quinoline]
18 nM	7.5 nM	COc1ccc2ncc3nc(Cn4cc(C)nn4)n([C@@H]4CCO[C@H](C)C4)c3c2c1 [Example 88, 8-methoxy-1-[(2R,4R)-2-methyltetrahydro-2H-pyran-4-yl]-2-[(4-methyl-1H-1,2,3-triazol-1-yl)methyl]-1H-imidazo[4,5-c]quinoline]
